Assay results taken from patent publication US20250090552A1, “MESALAMINE PHARMACEUTICAL FORMULATIONS AND METHODS OF USE THEREOF” (Intact Therapeutics, Inc., priority 2022, published 2025).

Tests used:
Type in all cases: physicochemical
[1] = Stability of one-part formulations stored at 60° C.; details: after preparation of one-part formulations; oxidation in an aqueous solution
[2] = Excipient compatibility study (gelation temperature, constant 15% poloxamer 407); details: change from initial
Method: Excipients were studied for compatibility. Constant—15% poloxamer 407 was used. The compatibility study was carried out with the following excipients: Mesalamine—6.67%; Transcutol—10%; EDTA—0.1%; Polocarbophil—0.25%+Tris—0.15%; TPGS—0.2%; NaCl—0.5%; Sodium metabisulfite—0.2%; PVA 30 CPS—1%; Kollidon 30-1%. The following lipids were investigated: DSPC—0.5%+DPCC—0.5%; Phospholipon 90G—1%; Lipoid S 100-1%; Phospholipon 90H—1%; Lecithin—1%. The following combination of poloxamer grades was also studied Poloxamer 188-1.5, 2.5 and 5%. No or marginal impact (1-2° C. from initial) was found for the following excipients: Transcutol, EDTA, TPGS, NaCl, and PVA. Moderate impact (2-5° C. from initial) was found with Mesalamine. […] No or marginal impact (1-2° C. from initial) was found in combinations with DSPC+DPCC, Phospholipon 90 G, and Lipoid S 100. […] All poloxamer combinations were stable for 28 days.

[3] = Gelation temperature (Tg/Tgel) of diluent and reconstituted formulation, initial and on stability storage
Method: The target for the 2 compartment formulations: • Gelation temperature 30-37 C • Gelation time—less than 5 minutes • Reconstitution time—less than 1 minutes • Viscosity at RT—less than 3000 cps • Reconstituted formulation should be stable for at least 3 hours
To understand the reproducibility of the gelation temperature, multiple batches were prepared and stability was monitored. In addition to this in one of batch, source of Mesalamine is varied to understand its impact on the various physical parameters.
During the stability study, only gelation temperature and the pH of the reconstituted formulation was monitored.
Formulation with 2% Lipoid S 100 has been considered as the lead formula. Reproducible batches with batch size (3-4 Kg) were manufactured and stability was monitored. These batches were packed into different packaging material MoC to understand its impact on the physical properties.

Nc1ccc(O)c(C(=O)O)c1 [Mesalamine, 5-aminosalicylic acid]
time to turn brown [1]: ≤ 3 days

O=S([O-])S(=O)(=O)[O-].[Na+].[Na+] [sodium metabisulfite]
impact on gelation temperature [2]: Significant impact

Cc1cc(C(C)(C)C)c(O)c(C(C)(C)C)c1 [BHT]
effect of additive on gelation temperature [3]: lowers the gelation temperature
